Measured values taken from patent US6506772B1, “Substituted [1,2,4]triazolo[1,5a]pyridine derivatives with activity as adenosine receptor ligands” (Hoffmann-La Roche Inc., priority 2000, dated 2003).

Legend:
[1] = biological target: T1, human adenosine A2A receptor (Homo sapiens, UniProt P29274); experiment: Human adenosine A2A receptor [3H]-SCH-58261 binding assay; details: for Ki: affinity to human adenosine A2A receptor, read-out: Ki HA2A; for selectivity (A1/A2a): calculated ratio of the affinity to the HA1 receptor to the HA2a receptor
T1 construct: expressed in transfected cells; host or cells: CHO cells, Semliki Forest virus expression system; membrane preparation
T1 sequence (P29274 whole entry): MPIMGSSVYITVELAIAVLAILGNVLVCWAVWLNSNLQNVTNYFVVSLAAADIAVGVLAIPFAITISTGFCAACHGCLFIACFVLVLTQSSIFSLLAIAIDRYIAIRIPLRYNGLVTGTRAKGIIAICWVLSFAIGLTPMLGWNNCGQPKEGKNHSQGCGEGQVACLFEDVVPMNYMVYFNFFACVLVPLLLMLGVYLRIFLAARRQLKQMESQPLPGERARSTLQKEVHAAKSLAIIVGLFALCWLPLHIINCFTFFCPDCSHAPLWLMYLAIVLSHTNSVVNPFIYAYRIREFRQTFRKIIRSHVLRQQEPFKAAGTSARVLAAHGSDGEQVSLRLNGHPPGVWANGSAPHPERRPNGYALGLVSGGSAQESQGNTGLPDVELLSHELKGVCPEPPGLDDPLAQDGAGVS

HA1 adenosine receptor = biological target: T2, HA1 adenosine receptor (Homo sapiens, UniProt P30542); experiment: Human adenosine A1 receptor affinity (Ki hA1); format: binding; details: affinity to human adenosine A1 receptor
T2 sequence (P30542 1-326): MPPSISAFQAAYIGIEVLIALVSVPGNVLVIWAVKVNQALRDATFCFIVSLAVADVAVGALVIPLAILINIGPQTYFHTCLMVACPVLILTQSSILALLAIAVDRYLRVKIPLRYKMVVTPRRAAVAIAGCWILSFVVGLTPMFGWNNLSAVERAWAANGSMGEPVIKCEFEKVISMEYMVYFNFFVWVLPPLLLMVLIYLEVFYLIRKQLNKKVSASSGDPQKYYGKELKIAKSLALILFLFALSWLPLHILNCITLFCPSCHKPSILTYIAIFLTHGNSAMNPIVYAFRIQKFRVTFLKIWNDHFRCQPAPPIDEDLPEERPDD

Row | Ki [1] [nM] | selectivity (A1/A2a) [1] | Ki (HA1 adenosine receptor) [nM] | SMILES
1 | 309 | 18.9 | 5850 | CCCNC(=O)c1cc(N)n2nc(-c3cccnc3)nc2c1 [Example 82, 5-Amino-2-pyridin-3-yl-[1,2,4]triazolo[1,5-a]pyridine-7-carboxylic acid propylamide]
2 | 130 | 11.6 | 1500 | Nc1cc(C(=O)NCc2ccccc2Cl)cc2nc(-c3ccc[nH]3)nn12 [Example 83, 5-Amino-2-(1H-pyrrol-2-yl)-[1,2,4]triazolo[1,5-a]pyridine-7-carboxylic acid 2-chloro-benzylamide]
3 | 294 | 16.9 | 4960 | CCCCN(Cc1ccccc1)C(=O)c1cc(N)n2nc(-c3ccc[nH]3)nc2c1 [Example 84, 5-Amino-2-(1H-pyrrol-2-yl)-[1,2,4]triazolo[1,5-a]pyridine-7-carboxylic acid benzyl-butyl-amide]
4 | 169 | 8.3 | 1400 | CCN(Cc1ccccc1F)C(=O)c1cc(N)n2nc(-c3ccc[nH]3)nc2c1 [Example 85, 5-Amino-2-(1H-pyrrol-2-yl)-[1,2,4]triazolo[1,5-a]pyridine-7-carboxylic acid ethyl-(2-fluoro-benzyl)-amide]
5 | 252 | 3.2 | 819 | CC(C)N(Cc1ccccc1)C(=O)c1cc(N)n2nc(-c3cccnc3)nc2c1 [Example 86, 5-Amino-2-pyridin-3-yl-[1,2,4]triazolo[1,5-a]pyridine-7-carboxylic acid benzyl-isopropyl-amide]
6 | 240 | 5.2 | 1260 | COc1ccccc1CNC(=O)c1cc(N)n2nc(-c3cccnc3)nc2c1 [Example 87, 5-Amino-2-pyridin-3-yl-[1,2,4]triazolo[1,5-a]pyridine-7-carboxylic acid 2-methoxy-benzylamide]
7 | 278 | 3.6 | 993 | CCN(Cc1ccccc1)C(=O)c1cc(N)n2nc(-c3cccnc3)nc2c1 [Example 88, 5-Amino-2-pyridin-3-yl-[1,2,4]triazolo[1,5-a]pyridine-7-carboxylic acid benzyl-ethyl-amide]
8 | 174 | 5.2 | 900 | CCCCN(Cc1ccccc1)C(=O)c1cc(N)n2nc(-c3cccnc3)nc2c1 [Example 89, 5-Amino-2-pyridin-3-yl-[1,2,4]triazolo[1,5-a]pyridine-7-carboxylic acid benzyl-butyl-amide]
9 | 144 | 1.7 | 239 | Nc1cc(C(=O)N(CCc2ccccc2)Cc2ccccc2)cc2nc(-c3cccnc3)nn12 [Example 90, 5-Amino-2-pyridin-3-yl-[1,2,4]triazolo[1,5-a]pyridine-7-carboxylic acid benzyl-phenethyl-amide]
10 | 144 | 5.7 | 815 | CCN(Cc1ccccc1F)C(=O)c1cc(N)n2nc(-c3cccnc3)nc2c1 [Example 91, 5-Amino-2-pyridin-3-yl-[1,2,4]triazolo[1,5-a]pyridine-7-carboxylic acid ethyl-(2-fluoro-benzyl)-amide]
11 | 304 | 16.0 | 4860 | COc1ccccc1CNC(=O)c1cc(N)n2nc(-c3ccc[nH]3)nc2c1 [Example 93, 5-Amino-2-(1H-pyrrol-2-yl)-[1,2,4]triazolo[1,5-a]pyridine-7-carboxylic acid 2-methoxy-benzylamide]
12 | 217 | 3.4 | 729 | Nc1cc(C(=O)N(CCc2ccccc2)Cc2ccccc2)cc2nc(-c3ccc[nH]3)nn12 [Example 96, 5-Amino-2-(1H-pyrrol-2-yl)-[1,2,4]triazolo[1,5-a]pyridine-7-carboxylic acid benzyl-phenethyl-amide]
13 | 235 | 10.9 | 2560 | COc1cc(CNC(=O)c2cc(N)n3nc(-c4nccs4)nc3c2)cc(OC)c1OC [Example 97, 5-Amino-2-thiazol-2-yl-[1,2,4]triazolo[1,5-a]pyridine-7-carboxylic acid 3,4,5-trimethoxy-benzylamide]
14 | 50.5 | 15.2 | 767 | CCCCNC(=O)c1cc(N)n2nc(-c3ccoc3)nc2c1 [Example 98, 5-Amino-2-furan-3-yl-[1,2,4]triazolo[1,5-a]pyridine-7-carboxylic acid butylamide]
15 | 233 | 26.2 | 6100 | Nc1cc(C(=O)N2CCCC2)cc2nc(-c3ccoc3)nn12 [Example 99, (5-Amino-2-furan-3-yl-[1,2,4]triazolo[1,5-a]pyridin-7-yl)-pyrrolidin-1-yl-methanone]
16 | 15.5 | 34.1 | 529 | Cc1ccc(-c2nc3cc(C(=O)N(C)C4CCCCC4)cc(N)n3n2)o1 [Example 100, 5-Amino-2-(5-methyl-furan-2-yl)-[1,2,4]triazolo[1,5-a]pyridine-7-carboxylic acid cyclohexyl-methyl-amide]
17 | 33.3 | 21.1 | 701 | CCN(CC)C(=O)c1cc(N)n2nc(-c3ccccc3O)nc2c1 [Example 101, 5-Amino-2-(2-hydroxy-phenyl)-[1,2,4]triazolo[1,5-a]pyridine-7-carboxylic acid diethylamide]
18 | 57.6 | 17.0 | 978 | Nc1cc(C(=O)N2CCCCC2)cc2nc(-c3ccccc3O)nn12 [Example 102, [5-Amino-2-(2-hydroxy-phenyl)-[1,2,4]triazolo[1,5-a]pyridin-7-yl]-piperidin-1-yl-methanone]
19 | 101 | 35.1 | 3530 | Nc1cc(C(=O)N2CCCCC2)cc2nc(-c3nccs3)nn12 [Example 103, (5-Amino-2-thiazol-2-yl-[1,2,4]triazolo[1,5-a]pyridin-7-yl)-piperidin-1-yl-methanone]
20 | 4.9 | 46.0 | 223 | CCCCNC(=O)c1cc(N)n2nc(-c3ccco3)nc2c1 [Example 104, 5-Amino-2-furan-2-yl-[1,2,4]triazolo[1,5-a]pyridine-7-carboxylic acid butylamide]
21 | 50.9 | 46.9 | 2380 | CCN(CC)C(=O)c1cc(N)n2nc(-c3ccco3)nc2c1 [Example 105, 5-Amino-2-furan-2-yl-[1,2,4]triazolo[1,5-a]pyridine-7-carboxylic acid diethylamide]
22 | 299 | 20.7 | 6200 | Nc1cc(C(=O)N2CCOCC2)cc2nc(-c3ccco3)nn12 [Example 108, (5-Amino-2-furan-2-yl-[1,2,4]triazolo[1,5-a]pyridin-7-yl)-morpholin-4-yl-methanone]
23 | 2.9 | 20.2 | 58.7 | Nc1cc(C(=O)NCc2ccccc2Cl)cc2nc(-c3ccco3)nn12 [Example 109, 5-Amino-2-furan-2-yl-[1,2,4]triazolo[1,5-a]pyridine-7-carboxylic acid 2-chloro-benzylamide]
24 | 2.6 | 24.5 | 64.2 | Nc1cc(C(=O)NCc2ccccc2Br)cc2nc(-c3ccco3)nn12 [Example 110, 5-Amino-2-furan-2-yl-[1,2,4]triazolo[1,5-a]pyridine-7-carboxylic acid 2-bromo-benzylamide]
